Source: US8329696B2, “Solid state forms of sitagliptin salts” (Teva Pharmaceuticals Industries Ltd., priority 2009, dated 2012)

Test: Retest of solid form by PXRD after storage
Type: physicochemical
Conditions: after 1 month storage
Description: Unless recited otherwise, X-Ray powder diffraction data was obtained by using methods known in the art using a SCINTAG powder X-Ray diffractometer model X'TRA equipped with a solid-state detector. Copper radiation of 1.5418 Å was used. A round aluminum sample holder with zero background was used. The scanning parameters included: range: 2-40 degrees two-theta; scan mode: continuous scan; step size: 0.05 deg.; and a rate of 3 deg/min.
The product was isolated by vacuum filtration and dried at 40° C. for 16 hours to obtain STG lactate crystalline form L3.

In the case of CC(O)C(=O)O.N[C@@H](CC(=O)N1CCn2c(nnc2C(F)(F)F)C1)Cc1cc(F)c(F)cc1F [Form L3, Sitagliptin lactate], the “Polymorphic form found by PXRD after storage” value was “transform to form L1”.
